Results as given in BigSolDB 2.1.

O=C(O)CCCCCCCCCCC(=O)O
solubility (mole fraction)
Conditions	288.15 K	293.15 K	298.15 K	303.15 K	308.15 K	313.15 K	318.15 K	323.15 K	328.15 K
in acetic acid	0.00316	0.00434	0.00581	0.00776	0.0103	0.0136	0.0179	0.0235	0.0306
in acetone	0.00286	0.00402	0.00543	0.00757	0.00995	0.0133	0.0178	0.0238	0.0318
in ethanol	0.00793	0.0105	0.0138	0.0181	0.0236	0.0305	0.0394	0.0506	0.0648
in ethyl acetate	0.00115	0.00165	0.00231	0.00327	0.00461	0.00638	0.00879	0.0121	0.0165
